Results on two compounds are retold here after patent publication US20100267954A1, “PROCESS FOR THE PURIFICATION OF PALIPERIDONE” (DIPHARMA FRANCIS S.r.l., priority 2009, published 2010).

The nature of series [1]: solubility in water (descriptive statement). As to conditions: crystalline solid. It is filed as physicochemical.
The conditions of series [2]: compared with Form II, hydrate form and solvate form; per EMEA document; cited from earlier work.

Structures can show the parent of a compound that is named as a salt.

Turning to `Cc1nc2n(c(=O)c1CCN1CCC(c3noc4cc(F)ccc34)CC1)CCCC2O` (stereo not drawn) [paliperidone hydrochloride, 3-[2-[4-(6-fluoro-1,2-benzoisoxazol-3-yl)-1-piperidinyl]ethyl-6,7,8,9-tetrahydro-9-hydroxy-2-methyl-4H-pyrido[1,2-a]-pyrimidin-4-one hydrochloride], the solubility in water result in series [1] is given as “poorly soluble in water”.
On to `Cc1nc2n(c(=O)c1CCN1CCC(c3noc4cc(F)ccc34)CC1)CCCC2O` (racemic) [paliperidone Form I, (±)-3-[2-[4-(6-fluoro-1,2-benzoisoxazol-3-yl)-1-piperidinyl]ethyl-6,7,8,9-tetrahydro-9-hydroxy-2-methylpropanediol-4H-pyrido[1,2-a]pyrimidin-4-one], for which the “thermodynamic stability among crystalline forms” value in series [2] is on record as “most thermodynamically stable”. Besides, the solubility in water entry in series [1] is reported as “poorly soluble in water”.
